Test results published in patent US20230105212A1, “BIPHENYL DERIVATIVE INHIBITOR, PREPARATION METHOD THEREFOR AND USE THEREOF” (SHANGHAI HANSOH BIOMEDICAL CO., LTD., priority 2020, published 2023).

Columns and labels:
[1] = Pharmacokinetic test of plasma and tumor of tumor-bearing nude mice; assay type: in vivo; conditions: tumor-bearing nude mice, p.o. 30 mg/kg
Protocol: Test Embodiment 7. Pharmacokinetic Test of Plasma and Tumor of Tumor-Bearing Nude Mice
Taking tumor-bearing nude mice as the test animals, the pharmacokinetic behavior in the plasma and tumor of tumor-bearing nude mice of the following compound embodiments was studied when orally administered at a dose of 30 mg/kg.
Tumor-bearing nude mouse 21/embodiment, female, Shanghai B&K Laboratory Animal Co., Ltd., animal production license number (SCXK (Shanghai) 2013-0006 No. 311620400001794).
0.5% HPMC (1% Tween 80), dissolved by sonication, to prepare a clear solution or a homogeneous suspension.
Tumor-bearing nude mice, female; p.o. after overnight fasting, respectively, at a dose of 30 mg/kg, administered in a volume of 10 mL/kg.
Before and after administration of tumor-bearing nude mice, at 0, 1, 2, 4, 6, 8, 16 and 24 hours, 0.1 mL of blood was collected from the orbit, placed in an EDTA-K2 test tube, and centrifuged at 6000 rpm at 4° C. for 6 min to separate the plasma. After dissection, the tumor tissue was weighed and stored at −80° C.
1) Tumor tissue was homogenized with methanol and water at a ratio of 1:3, and then centrifuged to get the supernatant. 40 μL of tumor homogenate supernatant and 40 μL of plasma sample were added to 160 μL of acetonitrile for precipitation, and after mixing, centrifuged at 3500×g for 5 to 20 minutes.
2) 100 μL of the supernatant solution after treatment was taken for LC/MS/MS to analyze the concentration of the compounds to be tested.
2.7 Liquid Phase Analysis • Liquid phase condition: Shimadzu LC-20AD pump • MS conditions: AB Sciex API 4000 Mass Spectrometer • Chromatographic column: phenomenex Gemiu 5 μm C18 50×4.6 mm • Mobile phase: A solution was aqueous 0.1% formic acid solution, B solution was acetonitrile • Flow rate: 0.8 mL/min • Elution time: 0 to 4.0 minutes, the eluent was as follows:
The main parameters of pharmacokinetics were calculated with WinNonlin 8.2, and the results of the tumor-bearing nude mice pharmacokinetic experiments were shown in the following table: […]

[2] = Plasma protein binding rate (equilibrium dialysis); assay type: in vitro ADME; conditions: mouse plasma, equilibrium dialysis 37° C. 5 hours
Protocol: Test Embodiment 8. Plasma Protein Binding Rate Experiment
The purpose of this experimental method was to detect the plasma protein binding of the embodiment compounds in plasma.
The frozen plasma was thawed at room temperature or in a water bath at 37° C., then centrifuged at 3500 rpm for 5 min, and the supernatant was taken.
Preparation of compound working solution: Stock solutions were diluted with DMSO to a final concentration of 1 mM.
2.5 μL of compound working solution was added to 497.5 μL of blank plasma to a final concentration of 5 μM, shaked and mixed well.
1) The equilibrium dialysis device was prepared, and the detection membrane device was put into the equilibrium dialysis 96-well plate;
2) 200 μL of the prepared plasma solution was added to the membrane, n=2;
3) another 5 μL of plasma solution was taken, diluted 10 times with 45 μL of blank plasma of the same species, and 200 μL of acetonitrile termination solution containing internal standard was added, and stored in a −20° C. refrigerator;
4) 350 μL of dialysate (100 mM phosphate buffer) was added outside the membrane;
5) the dialysis plate was sealed and incubated in a 37° C. water bath for 5 hours;
6) after dialysis, 5 μL was taken out from the sample hole in the membrane, and diluted 10 times with 45 μL of blank plasma of the same species; 50 μL of dialysate was taken out from the sample hole outside the membrane, and 200 μL of acetonitrile termination solution containing internal standard was added;
7) the supernatant was taken after sample centrifugation;

[3] = tested on: C57 mice subcutaneous xenografts tumor of MC38-hPDL1 cells; experiment: Tumor inhibition experiment on MC38-hPDL1 xenograft model; assay type: in vivo
Protocol: Test Embodiment 10. Tumor Inhibition Experiment on MC38-hPDL1 Xenograft Model
To evaluate the antitumor activity of the test compounds against C57 mice subcutaneous xenografts tumor of MC38-hPDL1 cells.
MC38-hPDL1 cells were taken out from the cell bank, added to DMEM medium (DMEM+10% FBS) after recovery, and placed in a CO2 incubator (incubator temperature was 37° C., CO2 concentration was 5%) to culture. MC38-hPDL1 cells were collected when the number of cells increased to the required number of inoculation in vivo. Counted with an automatic cell counter, and resuspend the cells with PBS according to the counting results to prepare a cell suspension (density was 1×10^6/mL), and placed in an ice box for use.
6-8-week-old female C57 mice weighing approximately 18-22 grams were used. Mice were housed in SPF animal room, single cage, 4-5 mice per cage. All cages, litter and water were sterilized at high temperature before use, and all animals had free access to food and water. Before the start of the experiment, C57 mice were marked with a disposable ear tag for rats and mice, and the skin of the inoculation site was disinfected with 75% alcohol before inoculation. Each mouse was subcutaneously inoculated with 0.1 mL (containing 1*10^5 cells) of MC38-hPDL1 cells on the right back. […] […] Tumor volume was measured twice a week and mice were weighed twice a week, and tumor TGI (%) was calculated.
Tumor volume (mm^3), the calculation formula was: V=0.5*D*d*d, wherein D and d were the long and short diameters of the tumor, respectively.
When the tumor regressed, TGI(%)=[1−(average tumor volume at the end of administration of a treatment group-average tumor volume at the beginning of administration of this treatment group)/average tumor volume at the beginning of administration of this treatment group]×100%.

[4] = tested on: NFAT-luc2/PD1 Jurkat cells; experiment: In vitro cytotoxicity on NFAT-luc2/PD1 Jurkat cells (CellTiter-Glo); assay type: cell-based; conditions: 72 hours
In short: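 Cells plated overnight at 37° C, 5% CO2, then exposed to serial compound dilutions for 72 hours. Viability measured by CellTiter-Glo luminescence; inhibition rate versus vehicle fitted by nonlinear regression to give IC50.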

Row | SMILES | Kp ([1]; female, mouse, tumor/plasma, po, read-out: Tumor plasma ratio) | Drug concentration in plasma [1] | Drug concentration in tumor [1] | fraction unbound at 5 h, 5 μM [2] | TGI (%) Day 15 ([3]; 10 mpk po bid, n=8) | Tumor volume (mm^3, Mean ± SD) Day 1 ([3]; 10 mpk po bid, n=8) | Tumor volume (mm^3, Mean ± SD) Day 14 ([3]; 10 mpk po bid, n=8) | ΔT/ΔC (%) Day 15 ([3]; 10 mpk po bid, n=8) | TGI (%) Day 15 ([3]; 30 mpk po qd, n=8) | Tumor volume (mm^3, Mean ± SD) Day 1 ([3]; 30 mpk po qd, n=8) | Tumor volume (mm^3, Mean ± SD) Day 14 ([3]; 30 mpk po qd, n=8) | ΔT/ΔC (%) Day 15 ([3]; 30 mpk po qd, n=8) | Jurkat-PD1 inhibition rate (%) [4] | IC50 ([4]; Homo sapiens, Jurkat) | TGI (%) Day 15 ([3]; 60 mpk po bid, n=7) | Tumor volume (mm^3, Mean ± SD) Day 1 ([3]; 60 mpk po bid, n=7) | Tumor volume (mm^3, Mean ± SD) Day 14 ([3]; 60 mpk po bid, n=7) | ΔT/ΔC (%) Day 15 ([3]; 60 mpk po bid, n=7)
1 | COc1nc(-c2cccc(-c3cccc(NC(=O)c4nc5c(n4C)CCN(C)C5)c3Cl)c2Cl)ccc1CN1CC2(C1)CN(C(C)=O)C2 [Embodiment 123, N-(3′-(5-((6-Acetyl-2,6-diazaspiro[3.3]heptan-2-yl)methyl)-6-methoxypyridin-2-yl)-2,2′-dichloro-[1,1′-biphenyl]-3-yl)-1,5-dimethyl-4,5,6,7-tetrahydro-1H-imidazo[4,5-c]pyridine-2-carboxamide] | 2.8 | 821 ng/mL | 2285 ng/mL | 0.0095 | 63.70% | 75.93 ± 26.17 mm^3 | 644.86 ± 398.92 mm^3 | 36.30% | 67.62% | 75.50 ± 25.70 mm^3 | 582.87 ± 359.11 mm^3 | 32.38% | – | – | – | – | – | –
2 | COc1nc(-c2cccc(-c3cccc(NC(=O)c4nc5c(n4C)CCN(C)C5)c3Cl)c2Cl)ccc1CNC1COC1 [Embodiment 114, N-(2,2′-Dichloro-3′-(6-methoxy-5-((oxetan-3-ylamino)methyl)pyridin-2-yl)-[1,1′-biphenyl]-3-yl)-1,5-dimethyl-4,5,6,7-tetrahydro-1H-imidazo[4,5-c]pyridine-2-carboxamide] | – | – | – | 0.0033 | – | – | – | – | – | – | – | – | 69.0%^ | 7.63 µM | 74.92% | 69.72 ± 21.92 mm^3 | 140.27 ± 77.92 mm^3 | 25.08%
